One data set is described as follows: in vitro. The note with it: human, HEK cells (HEK294 [sic]).
Data set [1] has as its system tomato and tobacco leaves. In words: Leaf infiltration toxicity on tomato and tobacco leaves. The note with it: for toxicity to tomato and tobacco: 15-25 μM, even after 96 hours of leaf infiltration; for corrosion of infiltrated tomato and tobacco leaves: 24, 48, 72, and 96 hours of infiltration (FIGS. 8A-H).
The subject of another data set is CLas. Type of data set: cell-based, Candidatus Liberibacter asiaticus.
The test system of data set [2] is selected genes in the PTI, ETI, and SA/JA/ET signaling. It is filed as cell-based, apple (Red Delicious).
The test system of a further data set is E. amylovora. Type of data set: cell-based, Erwinia amylovora.

Experimental findings from patent US20250243245A1 (priority 2022, published 2025) are described below.

Several values for one entry are separate records, joined by “and”; a condition that tells them apart may be missing. Equal entries are not always repeated. Where two headings read alike, the source gives them in different places. Where a SMILES comes first, the peptide text is derived from it.

Usually IC50 stands for the point on the concentration scale where inhibition reaches its midpoint. A high value points to weaker potency in that assay. As to `CC[C@H](C)[C@H](NC(=O)[C@H](CCCNC(=N)N)NC(=O)[C@H](CCCNC(=N)N)NC(=O)[C@H](CCC(N)=O)NC(=O)[C@H](Cc1c[nH]c2ccccc12)NC(=O)[C@H](Cc1ccccc1)NC(=O)CNC(=O)[C@@H]1CCCN1C(=O)[C@H](CO)NC(=O)CNC(=O)[C@H](Cc1ccc(O)cc1)NC(=O)CNC(=O)[C@H](CO)NC(=O)[C@H](CCC(=O)O)NC(=O)[C@H](CC(C)C)NC(=O)[C@@H](NC(=O)[C@H](CCCCN)NC(=O)[C@H](CC(C)C)NC(=O)[C@@H](NC(=O)[C@H](CCCCN)NC(=O)[C@H](CCC(=O)O)NC(=O)[C@@H]1CCCN1C(=O)[C@H](CC(C)C)NC(=O)[C@H](CCCCN)NC(=O)[C@@H](N)CCCCN)[C@@H](C)CC)[C@@H](C)CC)C(=O)N[C@@H](CCCNC(=N)N)C(=O)N[C@@H](CCCNC(=N)N)C(=O)N[C@@H](Cc1c[nH]c2ccccc12)C(=O)N[C@@H](CCCNC(=N)N)C(=O)N[C@@H](CCCNC(=N)N)C(=O)O` [UGK-13] (H-KKLPEKILKILESGYGSPGFWQRRIRRWRR-OH), the IC50 in the data set on E. coli BL21 (BL21) was 1200 ± 100 nM; with E. coli BL21 (BL21, 24 h), 1240 ± 20 nM; in the data set on ATCC25922, 1400 ± 300 nM. The molecule further returned a cytotoxicity at 72 h, 20 µM in the data set “in vitro” of under 20%. Also, in data set [1], the “toxicity to tomato and tobacco” value is recorded as “not toxic”. In data set [1], the “corrosion of infiltrated tomato and tobacco leaves” value is listed as “no corrosion beyond the infiltrated spots”.
Consider `CC[C@H](C)[C@H](NC(=O)[C@H](CCCCN)NC(=O)[C@H](CC(C)C)NC(=O)[C@@H](NC(=O)[C@H](CCCCN)NC(=O)[C@H](CCCCN)NC(=O)[C@@H]1CCCN1C(=O)[C@H](CC(C)C)NC(=O)[C@H](CCCCN)NC(=O)[C@@H](N)CCCCN)[C@@H](C)CC)C(=O)N[C@@H](CC(C)C)C(=O)NCC(=O)N[C@@H](CO)C(=O)NCC(=O)N[C@@H](Cc1ccc(O)cc1)C(=O)NCC(=O)N[C@@H](CO)C(=O)N1CCC[C@H]1C(=O)NCC(=O)N[C@@H](Cc1ccccc1)C(=O)N[C@@H](Cc1c[nH]c2ccccc12)C(=O)N[C@@H](CCC(N)=O)C(=O)N[C@@H](CCCNC(=N)N)C(=O)N[C@@H](CCCNC(=N)N)C(=O)N[C@H](C(=O)N[C@@H](CCCNC(=N)N)C(=O)N[C@@H](CCCNC(=N)N)C(=O)N[C@@H](Cc1c[nH]c2ccccc12)C(=O)N[C@@H](CCCNC(=N)N)C(=O)N[C@@H](CCCNC(=N)N)C(=O)O)[C@@H](C)CC` [Peptide 30P-3], for which, in the data set on CLas, the “Ct value, DNA, CLas clearance from infected citrus leaves” value is reported as 29.08 ± 0.018 (2.3 × 10^4 ± 0.122); the “Ct value, RNA, CLas clearance from infected citrus leaves” value was 31.80 ± 0.028 (6.8 × 10^3 ± 0.190); the “Ct, DNA, HLBas (CLas primer), Mean” value was 27.53 and 26.725; the “Ct, DNA, HLBas (CLas primer), single replicate” value was 27 (2×) and 28.06 and 26.45. In addition, in the data set on CLas, the “Ct, RNA, HLBas (CLas primer), Mean” value came to 30.155; the “Ct, RNA, HLBas (CLas primer), single replicate” value is 29.94 and 30.37. In the data set with E. coli BL21 (BL21, 24 h), half-maximal inhibition (IC50) required 1450 ± 90 nM. Besides, the cytotoxicity at 72 h, 20 µM in the data set “in vitro” was under 20%. In data set [2], the “expression of the selected genes” value is recorded as “lower expression of the selected genes”. For the same molecule, in the data set on E. amylovora (20 μM peptide), the “Ct, DNA, Erwinia Primer (P29T), Mean” value worked out at 37.19; the “Ct, DNA, Erwinia Primer (P29T), single replicate” value was 37.67 and 36.71. In addition, in the data set on E. amylovora (25 μM peptide), the “Ct, DNA, Erwinia Primer (P29T), Mean” value stood at 36.5; the “Ct, DNA, Erwinia Primer (P29T), single replicate” value was 37.76 and 35.24. Moreover, in the data set with E. amylovora (25∞M peptide), the “Ct, RNA, Erwinia Primer (P29T), Mean” value turned out to be 31.535; the “Ct, RNA, Erwinia Primer (P29T), single replicate” value is 31.56 and 31.51. Moreover, the “Ct value, DNA, E. amylovora clearance from infected apple leaves” value with E. amylovora (qPCR of DNA, 25 μM peptide) is on record as 36.50 ± 0.89. Moreover, the “cfu, DNA, E. amylovora clearance from infected apple leaves” value in the data set on E. amylovora (qPCR of DNA, 25 μM peptide, value in brackets) is reported as ~10^2 cfu. Further, the “Ct value, RNA, E. amylovora clearance from infected apple leaves” value in the data set with E. amylovora (qPCR of RNA, 25 μM peptide) turned out to be 31.54 ± 0.018. Moreover, the “cfu, RNA, E. amylovora clearance from infected apple leaves” value in the data set with E. amylovora (qPCR of RNA, 25 μM peptide, value in brackets) is reported as 7.8 × 10^3 ± 0.122 cfu. Moreover, in data set [1], the “toxicity to tomato and tobacco” value is recorded as “not toxic”; the “corrosion of infiltrated tomato and tobacco leaves” value is on record as “no corrosion beyond the infiltrated spots”.
